Patent publication US20080280891A1, “Anti-cancer agents and uses thereof” (Locus Pharmaceuticals, Inc., priority 2006, published 2008)

How the values were obtained:
Type in all cases: cell-based
[1] = test system: Jurkat T-cell leukemic cells; assay: Cell cycle assay (Example 163), G2/M block in Jurkat cells; conditions: 24 h, flow cytometry (PI), Table 2; for activation at 0.1 µM: Homo sapiens, Jurkat
Method: (§1) MCF-7 breast cancer cells and Jurkat T-cell leukemic cells were grown (and maintained) in EMEM and RPMI media, respectively, containing 10% fetal calf serum.
Test agents were added a concentration of 0.1 μM. Twenty-fours after test agent addition, cells were analyzed for cell cycle status as described below.
(§2) Cell cycle status was analyzed by flow cytometry. Briefly, cells were collected and washed with FACs buffer (Pharmingen) and resuspended and fixed in 1 mL of 80% ethanol for 1 hr. Cells were washed with FACs buffer and resuspended in propidium iodide(PI)/RNase staining buffer (Pharmingen). PI is a fluorescent dye that labels nucleic acids such as DNA. The fluorescence within a cell (in the presence of PI) is proportional to the amount of DNA within a cell. The cell content of DNA is an indices of status in the cell cycle. […] Cells in the S phase have DNA content that lies between these extremes.
(§3) For testing of cell cycle effects of test agents the percentage of cells within the G1 and G2/M phase were measured.

[2] = test system: MCF-7 breast cancer cells; assay: Cell cycle assay (Example 163), G2/M block in MCF-7 cells; conditions: flow cytometry (PI), Table 2; for activation at 1 µM: Homo sapiens, MCF7, 24 h
Method: as §1
Cells were allowed to adhere for 24 hrs. After adherence, cell culture media was changed to that containing 0.5% FCS. Thirty minutes post-media change, test compounds were added at a concentration of 1 μM. Twenty-fours after test agent addition, cells were analyzed for cell cycle status as described below.
as §2, §3

[3] = test system: Hela cells; assay: Cell viability assay (WST-1), Hela cells; conditions: WST-1, 48-72 hrs, 0.5% fetal calf serum
Method: (§4) Jurkat and Hela cells were cultured in RPMI and EMEM media, respectively, containing 0.5% fetal calf serum. Cells were plated in a volume of 100 μL in a 96 well format. Test compounds were included in the culture media at concentrations ranging from 1 nM to 10 μM for a period of 48-72 hrs. Cell viability was determined using the WST-1 calorimetric mitochondrial reduction assay. Briefly, 10 μL of WST-1 reagent was included in the culture well for a period of 1 to 4 hrs. The WST-1 reaction was read on a multiwell spectrophotometer as the difference in the absorbance between 450 nm and 600 nm (baseline). Absorbance was proportional to the number of living cells in the culture well. Concentration response curves and IC50 values were calculated using GraphPAD Prism graphing and curve fitting program.

[4] = test system: Jurkat cells; assay: Cell viability assay (WST-1), Jurkat cells; conditions: Homo sapiens, WST-1, 48-72 hrs, 0.5% fetal calf serum
Method: as §4

SMILES | IC50 ([3]; Homo sapiens, HeLa) [µM] | IC50 [4] [µM] | activation at 0.1 µM [1] [%] | activation at 1 µM [2] [%] | Jurkat G2/M Block 0.1 μM [1] | MCF-7 G2/M Block 1 μM ([2]; 24 h) | IC50 [3] [µM]
O=C(c1ccc(CO)nc1)c1cc(O)cc(-c2cccc3[nH]ccc23)c1 [[3-Hydroxy-5-(1H-indol-4-yl)-phenyl]-(6-hydroxymethyl-pyridin-3-yl)-methanone] | > 3 | 1 to 30 | < 50 | < 50 | – | – | –
[O-][n+]1cccc(Nc2cc(O)cc(-c3cccc4[nH]ccc34)c2)c1 [3-(1H-Indol-4-yl)-5-(1-oxy-pyridin-3-ylamino)-phenol] | – | – | – | – | Y (Y indicates a 50% or greater increase in the number of cells in the G2/M phase, as compared to control) | Y (Y indicates a 50% or greater increase in the number of cells in the G2/M phase, as compared to control) | 0.001 to 0.999
Oc1cc(Nc2cccnc2)cc(-c2cccc3cc[nH]c23)c1 [3-(1H-Indol-7-yl)-5-(pyridin-3-ylamino)-phenol] | > 3 | 1 to 30 | < 50 | < 50 | – | – | –
CN(C)c1cccc(-c2cc(O)cc(Nc3cccnc3)c2)c1 [3′-Dimethylamino-5-(pyridin-3-ylamino)-biphenyl-3-ol] | 1 to 30 | 1 to 30 | < 50 | < 50 | – | – | –
Cc1ccc(C(=O)c2cc(O)cc(-c3cccc4[nH]ccc34)c2)cn1 [[3-Hydroxy-5-(1H-indol-4-yl)-phenyl]-(6-methyl-pyridin-3-yl)-methanone] | 1 to 30 | 0.001 to 0.999 | < 50 | – | – | – | –
COc1ccc(COc2cc(Nc3cccnc3)cc(-c3cccc4sccc34)c2)cc1 [[3-Benzo[b]thiophen-4-yl-5-(4-methoxy-benzyloxy)-phenyl]-pyridin-3-yl-amine] | 1 to 30 | 1 to 30 | – | – | – | – | –
O=C(c1cccnc1)c1ccc(O)c(C23CC4CC(CC(C4)C2)C3)c1 [(3-Adamantan-1-yl-4-hydroxy-phenyl)-pyridin-3-yl-methanone] | > 3 | 1 to 30 | < 50 | < 50 | – | – | –
CS(=O)(=O)Nc1cccc(-c2cc(O)cc(Nc3cccnc3)c2)c1 [N-[5′-Hydroxy-3′-(pyridin-3-ylamino)-biphenyl-3-yl]-methanesulfonamide] | 1 to 30 | 1 to 30 | < 50 | ≥ 50 | – | – | –
O=C(c1cc(O)cc(-c2cccc3[nH]ccc23)c1)c1cccnc1Cl [(2-Chloro-pyridin-3-yl)-[3-hydroxy-5-(1H-indol-4-yl)-phenyl]-methanone] | 1 to 30 | 1 to 30 | < 50 | < 50 | – | – | –
Oc1ccc(C(O)c2cccnc2)cc1C12CC3CC(CC(C3)C1)C2 (stereo not drawn) [2-Adamantan-1-yl-4-(hydroxy-pyridin-3-yl-methyl)-phenol] | > 3 | 1 to 30 | < 50 | – | – | – | –
COc1cc(-c2cccc3[nH]ccc23)nc(Nc2cccnc2)n1 [[4-(1H-Indol-4-yl)-6-methoxy-pyrimidin-2-yl]-pyridin-3-ylamine] | 1 to 30 | – | < 50 | < 50 | – | – | –
Oc1cc(Nc2cccnc2)cc(-c2cccc3cccnc23)c1 [3-(Pyridin-3-ylamino)-5-quinolin-8-yl-phenol] | 1 to 30 | – | < 50 | < 50 | – | – | –
Oc1cc(Nc2cccnc2)cc(-c2ccc3c(c2)OCO3)c1 [3-Benzo[1,3]dioxol-5-yl-5-(pyridin-3-ylamino)-phenol] | > 3 | 1 to 30 | < 50 | – | – | – | –
O=C(c1cccnc1)c1cc(O)cc(-c2cccc3[nH]cc(C(=O)C(F)(F)F)c23)c1 [2,2,2-Trifluoro-1-{4-[3-hydroxy-5-(pyridine-3-carbonyl)-phenyl]-1H-indol-3-yl}-ethanone] | 1 to 30 | – | < 50 | < 50 | – | – | –
ON=C(c1cccnc1)c1cc(O)cc(-c2cccc3[nH]ccc23)c1 [[3-Hydroxy-5-(1H-indol-4-yl)-phenyl]-pyridin-3-yl-methanone oxime] | 1 to 30 | – | < 50 | < 50 | – | – | –
Cn1ccc2cccc(-c3cc(O)cc(Nc4cccnc4)c3)c21 [3-(1-Methyl-1H-indol-7-yl)-5-(pyridin-3-ylamino)-phenol] | > 3 | 1 to 30 | < 50 | – | – | – | –

The next lines start with results.

IC50 ([3]; Homo sapiens, HeLa) [µM] | IC50 [4] [µM] | SMILES | activation at 0.1 µM [1] [%] | activation at 1 µM [2] [%] | Jurkat G2/M Block 0.1 μM [1] | MCF-7 G2/M Block 1 μM ([2]; 24 h) | IC50 [3] [µM]
0.001 to 0.999 | 0.001 to 0.999 | Oc1cc(Nc2ccncc2)cc(-c2cccc3[nH]ccc23)c1 [3-(1H-Indol-4-yl)-5-(pyridin-4-ylamino)-phenol] | ≥ 50 | ≥ 50 | – | – | –
1 to 30 | 1 to 30 | Oc1cc(Nc2cccnc2)cc(-c2ccc3cc[nH]c3c2)c1 [3-(1H-Indol-6-yl)-5-(pyridin-3-ylamino)-phenol] | < 50 | < 50 | – | – | –
1 to 30 | 1 to 30 | Oc1cc(Nc2cccnc2)cc(-c2cccc3[nH]ccc23)c1Cc1ccccc1 [2-Benzyl-3-(1H-Indol-4-yl)-5-(pyridin-3-ylamino)-phenol] | < 50 | < 50 | – | – | –
0.001 to 0.999 | – | O=C(c1ccc(Cl)nc1)c1cc(O)cc(-c2cccc3[nH]ccc23)c1 [(6-Chloro-pyridin-3-yl)-[3-hydroxy-5-(1H-indol-4-yl)-phenyl]-methanone] | ≥ 50 | < 50 | – | – | –
1 to 30 | 0.001 to 0.999 | Oc1cc(Nc2cccnc2)cc(-c2cccc3cn[nH]c23)c1 [3-(1H-Indazol-7-yl)-5-(pyridin-3-ylamino)-phenol] | < 50 | < 50 | – | – | –
0.001 to 0.999 | 0.001 to 0.999 | Oc1cc(Nc2cnccn2)cc(-c2cccc3[nH]ccc23)c1 [3-(1H-Indol-4-yl)-5-(pyrazin-2-ylamino)-phenol] | ≥ 50 | ≥ 50 | – | – | –
1 to 30 | > 3 | Oc1cc(Nc2cccnc2)cc(-c2ccccc2C(F)(F)F)c1 [5-(Pyridin-3-ylamino)-2′-trifluoromethyl-biphenyl-3-ol] | ≥ 50 | < 50 | – | – | –
1 to 30 | – | Oc1cc(Nc2cccnc2)cc(-c2cccc3c2CCC3)c1 [3-Indan-4-yl-5-(pyridin-3-ylamino)-phenol] | < 50 | < 50 | – | – | –
1 to 30 | 0.001 to 0.999 | Oc1cc(Nc2cccnc2)cc(-c2ccc3[nH]ccc3c2)c1 [3-(1H-Indol-5-yl)-5-(pyridin-3-ylamino)-phenol] | ≥ 50 | < 50 | – | – | –
0.001 to 0.999 | 0.001 to 0.999 | Cc1cncc(C(=O)c2cc(O)cc(-c3cccc4[nH]ccc34)c2)c1 [[3-Hydroxy-5-(1H-indol-4-yl)-phenyl]-(5-methyl-pyridin-3-yl)-methanone] | ≥ 50 | ≥ 50 | – | – | –
1 to 30 | – | N#Cc1ccc2c(ccn2-c2cc(O)cc(Nc3cccnc3)c2)c1 [1-[3-Hydroxy-5-(pyridin-3-ylamino)-phenyl]-1H-indole-5-carbonitrile] | ≥ 50 | < 50 | – | – | –
1 to 30 | 0.001 to 0.999 | O=[N+]([O-])c1cc(Nc2cccnc2)cc(-c2cccc3[nH]ccc23)c1 [[3-(1H-Indol-4-yl)-5-nitro-phenyl]-pyridin-3-yl-amine] | < 50 | < 50 | – | – | –
0.001 to 0.999 | 0.001 to 0.999 | O=C(c1cc(O)cc(-c2cccc3[nH]ccc23)c1)c1cnccn1 [[3-Hydroxy-5-(1H-indol-4-yl)-phenyl]-pyrazin-2-yl-methanone] | < 50 | < 50 | – | – | –
0.001 to 0.999 | 1 to 30 | O=C(c1ccc(O)nc1)c1cc(O)cc(-c2cccc3[nH]ccc23)c1 [[3-Hydroxy-5-(1H-indol-4-yl)-phenyl]-(6-hydroxypyridin-3-yl)-methanone] | < 50 | – | – | – | –
0.001 to 0.999 | 1 to 30 | Oc1cc(Nc2ccc(O)nc2)cc(-c2cccc3[nH]ccc23)c1 [5-[3-Hydroxy-5-(1H-indol-4-yl)-phenylamino]-pyridin-2-ol] | < 50 | – | – | – | –
0.001 to 0.999 | – | Oc1cc(Nc2ccccn2)cc(-c2cccc3[nH]ccc23)c1 [3-(1H-Indol-4-yl)-5-(pyridin-2-ylamino)-phenol] | ≥ 50 | < 50 | – | – | –
0.001 to 0.999 | 1 to 30 | CC(O)(c1cccnc1)c1cc(O)cc(-c2cccc3[nH]ccc23)c1 (stereo not drawn) [3-(1-Hydroxy-1-pyridin-3-yl-ethyl)-5-(1H-indol-4-yl)-phenol] | < 50 | – | – | – | –
